{"source": "patent US8618082B2", "about": "“Lupeol anti-tumor agent and uses thereof” (Wisconsin Alumni Research Foundation, priority 2004, dated 2013)", "key": {"CD-1 mouse skin": {"tested_on": "CD-1 mouse skin", "assay": "TPA-induced epidermal hyperplasia (hematoxylin and eosin histology)", "assay_type": "in vivo", "procedure": "FIG. 2. Inhibitory effect of Lupeol on TPA-induced hyperplasia in CD-1 mice: 24 and 48 h after treatment, the animals were sacrificed; skin biopsies were processed for hematoxylin and eosin staining. Representative pictures are shown.\nThe effect of topical application of Lupeol on TPA-mediated induction of epidermal hyperplasia was then assessed.\nThe animals were shaved on the dorsal side of the skin, divided into four groups and treated topically on the shaved area with either 0.4 ml vehicle (acetone), or TPA (3.2 nmol/0.4 ml acetone/animal, v/v), or Lupeol (1 or 2 mg/0.2 ml acetone/animal, w/v) followed 30 min later with TPA (3.2 nmol/0.2 ml acetone/animal). Animals were sacrificed at different times point i.e. 6, 12, 24 and 48 h post TPA treatment. The epidermis was separated from the whole skin and homogenized in 0.1 M Tris-HCl buffer (pH 7.2) using a Polytron tissue homogenizer (Brinkmann Instruments, Westbury, N.Y., USA) at 100,000×g supernatant, and microsomal fractions were prepared as described earlier (Katiyar and Mukhtar, 1997). […]\nTo assess the inhibitory effect of pre-application of Lupeol on TPA-induced edema, 1 cm-diameter punches of skin from vehicle-, Lupeol-, TPA- or Lupeol- and TPA-treated mice were removed, made free of fat pads, and weighed immediately. After drying for 24 h at 50° C., the skin punches were reweighed, and the loss of water content was determined. […]"}, "epidermal ODC": {"tested_on": "epidermal ODC", "assay": "TPA-induced epidermal ODC enzyme activity (14CO2 release)", "assay_type": "in vivo, mouse", "conditions": "for inhibition of TPA-caused induction of epidermal ODC activity: p<0.005", "procedure": "FIG. 3. Inhibitory effect of Lupeol on TPA-induced epidermal ODC activity: ODC enzyme activity was determined using 0.4 ml epidermal supernatant by measuring the release of ^14CO2 from the D, L-[^14C]ornithine. Data is represented as mean±SE of four individual values (* represents p<0.005). The epidermis from two animals was pooled for each determination.\nThe animals were shaved on the dorsal side of the skin, divided into four groups and treated topically on the shaved area with either 0.4 ml vehicle (acetone), or TPA (3.2 nmol/0.4 ml acetone/animal, v/v), or Lupeol (1 or 2 mg/0.2 ml acetone/animal, w/v) followed 30 min later with TPA (3.2 nmol/0.2 ml acetone/animal). Animals were sacrificed at different times point i.e. 6, 12, 24 and 48 h post TPA treatment. The epidermis was separated from the whole skin and homogenized in 0.1 M Tris-HCl buffer (pH 7.2) using a Polytron tissue homogenizer (Brinkmann Instruments, Westbury, N.Y., USA) at 100,000×g supernatant, and microsomal fractions were prepared as described earlier (Katiyar and Mukhtar, 1997). The sample of 6 h treatment group was used to assess the ODC activity as this time point has previously been shown for optimal induction of the enzyme (Katiyar er al., 1996).\nODC enzyme activity was determined using 0.4 ml epidermal supernatant by measuring the release of ^14CO2 from the D, L-[^14C] ornithine as reported earlier. (Gupta et al., 1999). The epidermis from the skin was homogenized at 4° C. in a glass-to-glass homogenizer in 10 volumes of ODC buffer [50 mM Tris-HCl buffer (pH 7.5) containing 0.1 mM EDTA, 0.1 mM dithiothreitol, 0.1 mM pyridoxal-5-phosphate, 1 mM 2-mercaptoethanol and 0.1% Tween-80]. The homogenate was centrifuged at 100,000×g at 4° C. and the supernatant was used for enzyme determination. […] The radioactivity was measured in a Beckman LS 6000 SC liquid scintillation counter. Enzyme activity was expressed as pmol CO2 released/h/mg protein."}, "[1]": {"tested_on": "androgen-sensitive prostatic cancer cells (LNCaP)", "assay": "Viability of LNCaP cells, MTT assay", "assay_type": "cell-based, human", "conditions": "for cell death of LNCaP cells: 48 hours", "procedure": "FIG. 10 depicts effect of Lupeol on viability of androgen-sensitive prostatic cancer cells (LNCaP). Cells were treated with specified concentrations of Lupeol for 48 h, and cell viability was determined by MTT assay. The values are represented as the percent viable cells where vehicle-treated cells were regarded as 100% viable. Data represents mean value of percent viable cells±S.E of three independent experiments."}, "LNCaP cells": {"tested_on": "LNCaP cells", "assay": "Apoptosis in LNCaP cells by flow cytometry", "assay_type": "cell-based, human", "conditions": "Lupeol 5-30 μM", "procedure": "FIG. 11 depicts quantitative representation of Lupeol induced apoptosis in LNCaP cells as assessed by flow cytometry. Cells were treated with Lupeol (5-30 μM). Cells showing fluorescence above that of control population, as indicated by the line in each histogram, are considered as apoptotic cells. The images shown here are representative of independent experiments with similar results. The values shown inside each graph indicates percent apoptotic cells."}, "AsPC-1 cells": {"tested_on": "AsPC-1 cells", "assay": "Apoptosis in AsPC-1 cells by fluorescence microscopy and flow cytometry", "assay_type": "cell-based", "conditions": "flow cytometry and confocal microscopy", "description": "FIG. 21 depicts Lupeol induced apoptosis in AsPC-1 cells as assessed by fluorescence microscopy (Upper Panel) and by flow cytometry (Bottom Panel). Upper panel of FIG. 21 contains the representative micrographs of AsPC-1 cells undergoing apoptosis induced by treatment with Lupeol as assessed by fluorescence microscopy (Upper panel)."}, "[2]": {"tested_on": "PARP, Bax, Bcl-2 in AsPC-1 cells", "assay": "PARP cleavage and Bax, Bcl-2 expression in AsPC-1 cells", "assay_type": "cell-based", "description": "FIG. 22 depicts effect of Lupeol treatment on PARP cleavage and on protein expression of Bax, Bcl-2 in AsPC-1 cells."}, "[3]": {"tested_on": "p38, Erk1/2, p21, Cyclin D-2 in AsPC-1 cells", "assay": "MAP kinase phosphorylation and p21, Cyclin D-2 expression in AsPC-1 cells", "assay_type": "cell-based", "description": "FIG. 25 depicts effect of Lupeol treatment on the phosphorylation of p38 and Erk1/2 in MAP kinase signaling and p21 and Cyclin D-2 protein expression in AsPC-1 cells."}}, "note": "Entries after “also recorded” stand apart in the source; their conditions may differ."}
{"smiles": "C=C(C)[C@@H]1CC[C@]2(C)CC[C@]3(C)[C@H](CC[C@@H]4[C@@]5(C)CC[C@H](O)C(C)(C)[C@@H]5CC[C@]43C)[C@@H]12", "note": "[Lupeol, Lup-20(29)-en-3β-ol]", "values": [{"measurement": "epidermal hyperplasia after Lupeol alone", "setting": "CD-1 mouse skin; Lupeol alone", "result": "did not induce any epidermal hyperplasia"}, {"measurement": "induction of epidermal hyperplasia by TPA", "setting": "CD-1 mouse skin; topical Lupeol prior to TPA, 24 and 48 h", "result": "resulted in inhibition in the induction of epidermal hyperplasia"}, {"measurement": "inhibition of TPA-caused induction of epidermal ODC activity", "setting": "epidermal ODC; Lupeol 1 mg/animal topical 30 min prior to TPA", "result": 50, "unit": "%"}, {"measurement": "inhibition of TPA-caused induction of epidermal ODC activity", "setting": "epidermal ODC; Lupeol 2 mg/animal topical 30 min prior to TPA", "result": 75, "unit": "%"}, {"measurement": "basal epidermal ODC activity", "setting": "epidermal ODC; Lupeol alone (2 mg/animal)", "result": "without any effect"}, {"measurement": "cell death of LNCaP cells", "setting": "[1]; 40-60 μM Lupeol", "result": "75-90%"}, {"measurement": "cell viability of LNCaP cells", "setting": "[1]; Lupeol 5-30 μM, 48 and 72 h, time and dose dependent", "result": "significant inhibition of cell viability"}, {"measurement": "cell death of LNCaP cells", "setting": "[1]; Lupeol up to 30 μM", "result": 70, "unit": "%"}, {"measurement": "induction of apoptosis in LNCaP cells", "setting": "LNCaP cells", "result": "due to apoptosis; also recorded: inducing apoptosis"}, {"measurement": "induction of apoptosis in ASPC-1 cells", "setting": "AsPC-1 cells", "result": "inducing apoptosis"}, {"measurement": "expression level of anti-apoptotic protein Bcl-2", "setting": "[2]", "result": "no change was observed"}, {"measurement": "Bax protein expression", "setting": "[2]; 48 hours", "result": "increased Bax protein expression"}, {"measurement": "cleavage of PARP", "setting": "[2]; 48 hours", "result": "induced cleavage of PARP"}, {"measurement": "Cyclin-D2 protein expression", "setting": "[3]", "result": "decrease in Cyclin-D2 protein expression"}, {"measurement": "expression of p-21", "setting": "[3]", "result": "increase in the expression of p-21"}, {"measurement": "phosphorylation of Erk 1/2", "setting": "[3]", "result": "increase in the phosphorylation of Erk 1/2"}, {"measurement": "phosphorylation of p38", "setting": "[3]", "result": "significant reduction"}]}
